Assays:
ABUTH [1] = experiment: Pre-emergence herbicidal action against ABUTH; format: in vivo, Abutilon theophrasti; details: Abutilon theophrasti, 504 h; for pest or weed control at 80 g/ha: scored visually after 3 weeks vs untreated controls (100% = plants have died, 0% = like control plants)
Outline: (§1)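 Seeds sown in sandy loam, soil-covered; compound sprayed on soil surface pre-emergence. Application: WP/EC, 600–800 l/ha, 0.2% wetting agent. Readout: visual % damage at 3 weeks.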

AMARE [2] = experiment: Pre-emergence herbicidal action against AMARE; format: in vivo, Amaranthus retroflexus; details: Amaranthus retroflexus, 504 h, scored visually after 3 weeks vs untreated controls, 100% = plants have died, 0% = like control plants
Outline: as §1

MATIN [3] = experiment: Pre-emergence herbicidal action against MATIN; format: in vivo, Matricaria inodora; details: Tripleurospermum inodorum, 504 h; for pest or weed control at 20 g/ha: dosage 20 g/ha; for pest or weed control at 80 g/ha: dosage 80 g/ha
Outline: as §1

STEME = experiment: Pre-emergence herbicidal action against STEME; format: in vivo, Stellaria media; details: Stellaria media, 504 h, dosage 80 g/ha
Excerpt: Seeds of monocotyledonous and dicotyledonous weed plants and crop plants are laid out in sandy loam soil in wood-fiber pots and covered with soil. The compounds of the invention, formulated in the form of wettable powders (WP) or as emulsion concentrates (EC), are then applied to the surface of the covering soil in the form of an aqueous suspension or emulsion at a water application rate equivalent to 600 to 800 l/ha, with addition of 0.2% wetting agent. After the treatment, the pots are placed in a greenhouse and kept under good growth conditions for the trial plants. The damage to the test plants is scored visually after a test period of 3 weeks by comparison with untreated controls (herbicidal activity in percent (%): 100% activity=the plants have died, 0% activity=like control plants). […] The tables below illustrate, in an illustrative manner, the post-emergence herbicidal action of the compounds of the invention, the herbicidal activity being stated in percent.

VIOTR [4] = experiment: Pre-emergence herbicidal action against VIOTR; format: in vivo, Viola tricolor; details: Viola tricolor, 504 h; for pest or weed control at 80 g/ha: dosage 80 g/ha
Outline: as §1

DIGSA [5] = experiment: Pre-emergence herbicidal action against DIGSA; format: in vivo, Digitaria sanguinalis; details: Digitaria sanguinalis, 504 h; for pest or weed control at 80 g/ha: dosage 80 g/ha
Outline: as §1

ABUTH [6] = experiment: Post-emergence herbicidal action against ABUTH; format: in vivo, Abutilon theophrasti; details: Abutilon theophrasti, 504 h, dosage 20 g/ha, visual assessment about 3 weeks after treatment vs untreated controls
Outline: (§2)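 Percent herbicidal action is rated by eye about 3 weeks after treatment against untreated controls, where 100% means dead plants and 0% means like controls. Plants in sandy loam are sprayed on green parts at the one-leaf stage with aqueous WP or EC preparations at 600 to 800 l/ha plus 0.2% wetting agent.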

AMARE [7] = experiment: Post-emergence herbicidal action against AMARE; format: in vivo, Amaranthus retroflexus; details: Amaranthus retroflexus, 504 h, 20 g/ha, visual assessment about 3 weeks after treatment, 100% = plants have died, 0% = like control plants
Outline: as §2

VIOTR [8] = experiment: Post-emergence herbicidal action against VIOTR; format: in vivo, Viola tricolor; details: Viola tricolor, 504 h
Outline: as §2

POLCO = experiment: Pre-emergence herbicidal action against POLCO; format: in vivo, Polygonum convolvulus; details: Fallopia convolvulus, 504 h; for pest or weed control at 80 g/ha: dosage 80 g/ha
Outline: as §1

VERPE [9] = experiment: Pre-emergence herbicidal action against VERPE; format: in vivo, Veronica persica; details: Veronica persica, 504 h; for pest or weed control at 80 g/ha: dosage 80 g/ha
Outline: as §1

ALOMY [10] = experiment: Pre-emergence herbicidal action against ALOMY; format: in vivo, Alopecurus myosuroides; details: Alopecurus myosuroides, 504 h, pre-emergence
Outline: as §1

AVEFA = experiment: Pre-emergence herbicidal action against AVEFA; format: in vivo, Avena fatua; details: Avena fatua, 504 h; 80 g/ha, pre-emergence
Outline: as §1

ECHCG = experiment: Pre-emergence herbicidal action against ECHCG; format: in vivo, Echinochloa crus-galli; details: Echinochloa crus-galli, 504 h, 80 g/ha
Outline: as §1

PHBPU [11] = experiment: Pre-emergence herbicidal action against PHBPU; format: in vivo, Pharbitis purpurea; details: Ipomoea purpurea, 504 h, dosage 80 g/ha
Outline: as §1

SETVI [12] = experiment: Pre-emergence herbicidal action against SETVI; format: in vivo, Setaria viridis; details: Setaria viridis, 504 h
Outline: as §1

ALOMY [13] = experiment: Post-emergence herbicidal action against ALOMY; format: in vivo, Alopecurus myosuroides; details: Alopecurus myosuroides, 504 h, dosage 20 g/ha, visual assessment about 3 weeks after treatment vs untreated controls
Outline: as §2

MATIN [14] = experiment: Post-emergence herbicidal action against MATIN; format: in vivo, Matricaria inodora; details: Tripleurospermum inodorum, 504 h
Outline: as §2

PHBPU [15] = experiment: Post-emergence herbicidal action against PHBPU; format: in vivo, Pharbitis purpurea; details: Ipomoea purpurea, 504 h, dosage 20 g/ha
Outline: as §2

SETVI [16] = experiment: Post-emergence herbicidal action against SETVI; format: in vivo, Setaria viridis; details: Setaria viridis, 504 h
Outline: as §2

VERPE [17] = experiment: Post-emergence herbicidal action against VERPE; format: in vivo, Veronica persica; details: Veronica persica, 504 h
Outline: as §2

DIGSA [18] = experiment: Post-emergence herbicidal action against DIGSA; format: in vivo, Digitaria sanguinalis; details: Digitaria sanguinalis, 504 h
Outline: as §2

Structure (SMILES) | pest or weed control at 80 g/ha (ABUTH [1]) [%] | pest or weed control at 20 g/ha (AMARE [2]) [%] | pest or weed control at 80 g/ha (AMARE [2]) [%] | pest or weed control at 20 g/ha (MATIN [3]) [%] | pest or weed control at 80 g/ha (MATIN [3]) [%] | pest or weed control at 80 g/ha (STEME) [%] | pest or weed control at 80 g/ha (VIOTR [4]) [%] | pest or weed control at 80 g/ha (DIGSA [5]) [%] | pest or weed control at 20 g/ha (ABUTH [6]) [%] | pest or weed control at 20 g/ha (AMARE [7]) [%] | pest or weed control at 20 g/ha (VIOTR [8]) [%] | pest or weed control at 80 g/ha (POLCO) [%] | pest or weed control at 80 g/ha (VERPE [9]) [%] | pest or weed control at 5 g/ha (VIOTR [8]) [%] | also measured
CNC(=O)c1c(S(C)(=O)=O)ccc(C(=O)Nc2nnnn2C)c1Cl [Example 1-123] | 100 | 80 | 100 | 80 | 100 | 90 | 80 | 90 | 80 | 80 | 100 | – | – | – | –
Cn1nnnc1NC(=O)c1ccc(S(C)(=O)=O)c(C(=O)NC2CC2)c1Cl [Example 1-125] | – | 90 | 100 | 80 | 100 | 100 | 100 | 90 | – | 80 | 100 | 80 | 80 | 100 | pest or weed control at 20 g/ha (POLCO; dosage 20 g/ha): 80%; pest or weed control at 20 g/ha (VERPE [9]; dosage 20 g/ha): 80%
CCn1nnnc1NC(=O)c1ccc(C(F)(F)F)c(C(=O)NC)c1Br [Example 2-207] | 100 | 100 | 100 | 90 | 100 | – | 100 | 100 | 90 | 100 | 100 | 90 | 90 | 100 | pest or weed control at 20 g/ha (ABUTH [1]; dosage 20 g/ha, scored visually after 3 weeks vs untreated controls, 100% = plants have died, 0% = like control plants, read-out: Pre-emergence action against ABUTH (herbicidal activity in percent)): 100%; pest or weed control at 80 g/ha (ALOMY [10]; 80 g/ha, scored visually after 3 weeks vs untreated controls (100% = plants have died, 0% = like control plants)): 90%; pest or weed control at 20 g/ha (ALOMY [10]; 20 g/ha, scored visually after 3 weeks, 100% = plants have died, 0% = like control plants): 80%; pest or weed control at 80 g/ha (AVEFA): 90%; pest or weed control at 80 g/ha (ECHCG): 100%; pest or weed control at 80 g/ha (PHBPU [11]): 80%; pest or weed control at 20 g/ha (SETVI [12]; dosage 20 g/ha): 100%; pest or weed control at 80 g/ha (SETVI [12]; dosage 80 g/ha): 100%; pest or weed control at 20 g/ha (VIOTR [4]; dosage 20 g/ha): 90%; pest or weed control at 20 g/ha (DIGSA [5]; dosage 20 g/ha): 90%; pest or weed control at 20 g/ha (ALOMY [13]): 90%; pest or weed control at 5 g/ha (MATIN [14]; dosage 5 g/ha): 80%; pest or weed control at 20 g/ha (MATIN [14]; dosage 20 g/ha): 90%; pest or weed control at 20 g/ha (PHBPU [15]): 80%; pest or weed control at 5 g/ha (SETVI [16]; dosage 5 g/ha): 90%; pest or weed control at 20 g/ha (SETVI [16]; dosage 20 g/ha): 100%; pest or weed control at 5 g/ha (VERPE [17]; 5 g/ha): 80%; pest or weed control at 20 g/ha (VERPE [17]; 20 g/ha): 90%; pest or weed control at 5 g/ha (DIGSA [18]; 5 g/ha): 80%; pest or weed control at 20 g/ha (DIGSA [18]; 20 g/ha): 100%
